Data from US10046060B2, “Co-administration of an agent linked to an internalization peptide with an anti-inflammatory” (NoNO Inc., priority 2007, dated 2018).
Entries after “also recorded” stand apart in the source; their conditions may differ. Ends that are not written are not given here.

Legend:
Beagle dogs [1] = experiment: GLP cardiovascular telemetry study, escalating doses (CRM Study No. 691106); type: in vivo, dog
Description: In a GLP cardiovascular telemetry study in unrestrained conscious Beagle dogs (CRM Study No. 691106), 6 animals (3 males, 3 females) were administered escalating doses of Tat-NR2B9c (0.25, 1.0, or 5.0 mg/kg gross peptide), with a washout period of 3 days between dose levels. […] Moreover, the time-frame between the low dose (0.25 mg/kg) and the high dose (5.0 mg/kg) was about 6 days, i.e., of insufficient duration to allow the generation of an immune response. The effect is thus caused by a direct degranulation of mast cells causing histamine release.

rats = experiment: Mean arterial pressure (MAP) in rats after Tat peptides with or without anti-inflammatory agents; conditions: 7.5 mg/kg bolus; FIG. 7
[2] = Maximum Tolerated Dose in preclinical animal trials, rats; conditions: rat, in vivo
humans = experiment: Safety, Tolerability and Pharmacokinetic Study in humans: adverse events; type: in vivo, human
Description: We carried out a Safety, Tolerability and Pharmacokinetic Study of Tat-NR2B9c in humans. Subjects were either normal, healthy, non-smoking males or post-menopausal or surgically sterile female subjects with a minimum age of 18 years. The subjects were either administered Tat-NR2B9c, Lot #: 124-134-001B, or were given placebo (Phosphate Buffered Saline), Lot #: 124-134-001A, administered as an intravenous infusion (10±1 minutes). Four subjects were dosed in each of Cohorts 1 to 3, and 10 subjects were dosed in each of Cohorts 4 to 8. All 62 subjects completed the study. Treatment periods for each cohort were as follows: Cohort 1: Sep. 14, 2006; Cohort 2: Sep. 26, 2006; Cohort 3: Oct. 6, 2006; Cohort 4: Oct. 20, 2006; Cohort 5: Nov. 6, 2006; Cohort 6: Dec. 4, 2006; Cohort 7: Dec. 17, 2006; Cohort 8: Feb. 25, 2007.
The safety assessment was performed on all subjects who received at least 1 dose during the course of the study. The incidents of all adverse events (AEs) were tabulated by treatment and subject number. Absolute values for vital signs, electrocardiogram (ECG) parameters, laboratory parameters and physical examinations were also documented and values outside the nomial range were flagged. Shifts from baseline values were tabulated. AEs were documented using investigator and Medical Dictionary for Regulatory Activities (MedDRA) terms.

Beagle dogs [3] = experiment: Non-GLP dose range study, single slow intravenous injection; type: in vivo, dog; conditions: for Severity of angio-neurotic oedema and urticaria: 12.5 mg/kg
Description: A non-GLP study was conducted to examine a dose range for Tat-NR2B9c, administered to Beagle dogs by a single, slow intravenous injection. Two animals (one male and one female Beagle dog) were dosed intravenously with Tat-NR2B9c on seven occasions. There was a 3-4 day wash-out period between the doses. The first dose was given at 2.5 mg/kg. […] There was no reaction in the female dog. […] The third dose was given at 12.5 mg/kg. […] The reaction in the male dog was assessed to be moderate, and in the female animal, the reaction was mild. The next dose was set at 20.0 mg/kg. […] The animal was treated with i.v. administration of benadryl and dexamethasone. BP at 5 minutes post-dosing was recorded as 37/13 mm Hg (nomial BP in a dog is ˜160/90). A decision was made not to dose the female animal.
The next doses were given in order to better understand the type of reactions seen in preceding doses. The fifth and sixth doses were set at 2.5 and 5.0 mg/kg.

Sprague-Dawley rats = experiment: Non-GLP blood pressure study in anesthetized rats at 50 mg/kg; type: in vivo, rat
Description: In one experiment, 5 male Sprague-Dawley rats received a 50 mg/kg Tat-NR2B9c bolus dose over 3 minutes. Blood pressure was monitored via a femora arterial catheter.

Sequence: YGRKKRRQRRRKLSSIESDV [Tat-NR2B9c]
- Dogs with transient drop in blood pressure (Beagle dogs [1]; 5 mg/kg): 4 of 6
- Duration of transient drop in blood pressure (Beagle dogs [1]; 5 mg/kg): approximately 30 minutes
- Effects on blood pressure (Beagle dogs [1]; 0.25 or 1.0 mg/kg): No effects
- Effect on MAP (printed MAT) after injection (rats): rapid and transient reduction; also recorded: reduction in blood pressure
- MTD [2]: 100 mg/kg
- AEs of the higher doses at the lower dose range (humans; 0.02 to 1.50 mg/kg): minimal or not present
- Incidence of AEs vs lower dose groups and placebo (humans; 2.60 and 3.75 mg/kg dose groups): significantly more AEs; also recorded: higher
- Serious Adverse Events (humans; all doses): No Serious Adverse Events (SAEs) were reported
- Active treatment subjects with at least 1 AE (humans; all doses 0.02-3.75 mg/kg): 73.9%
- Doses at which several AEs were frequently reported (humans; decreased blood pressure, paraesthesia, hypoaesthesia, erythema, rash, pruritus, dry mouth, nausea, feeling hot, flushing): ≥ 2.60 mg/kg
- Subjects feeling hot (humans; subjects receiving Tat-NR2B9c): 28.3%
- Subjects feeling hot (count) (humans; subjects receiving Tat-NR2B9c): 13/46
- Subjects with dry mouth (humans; subjects receiving Tat-NR2B9c): 19.6%
- Subjects with dry mouth (count) (humans; subjects receiving Tat-NR2B9c): 9/46
- Subjects with flushing (humans; subjects receiving Tat-NR2B9c): 21.7%
- Subjects with flushing (count) (humans; subjects receiving Tat-NR2B9c): 10/46
- Subjects with pruritis (humans; subjects receiving Tat-NR2B9c): 26.1%
- Subjects with pruritis (count) (humans; subjects receiving Tat-NR2B9c): 12/46
- Reaction (Beagle dogs [3]; 5.0 mg/kg, female dog): no reaction
- Reaction (Beagle dogs [3]; 5.0 mg/kg, male dog): moderate reaction
- Vital signs (heart rate, blood pressure, respiratory rate and body temperature) (Beagle dogs [3]; 7.5 mg/kg, both animals): stayed within the normal physiological ranges
- Reaction (Beagle dogs [3]; 7.5 mg/kg, female dog): no reaction
- Reaction (Beagle dogs [3]; 7.5 mg/kg, male dog): angio-neurotic edema of the soft tissue of the head and urticaria type of reaction
- Severity of angio-neurotic oedema and urticaria (Beagle dogs [3]; female dog): mild
- Severity of angio-neurotic oedema and urticaria (Beagle dogs [3]; male dog): moderate
- Reaction (Beagle dogs [3]; 20.0 mg/kg, male dog): went into shock
- Blood pressure at 5 minutes post-dosing (Beagle dogs [3]; 20.0 mg/kg, male dog, treated with benadryl and dexamethasone): 37/13
- Adverse reactions (Beagle dogs [3]; fifth dose 2.5 mg/kg): reddening of ear and face of the male dog
- Signs of toxicity (Beagle dogs [3]; first dose 2.5 mg/kg, male and female dog): did not show any signs of toxicity
- Conclusion of dose range study (Beagle dogs [3]; high doses): capable of inducing profound transient hypotension and urticaria-like skin reactions
- Mean arterial pressure (Sprague-Dawley rats; 50 mg/kg bolus over 3 minutes, all animals, FIG. 6): transient reductions in mean arterial pressure; also recorded: drop in blood pressure
- Respiratory effects (Sprague-Dawley rats; rat, 50 mg/kg): decreased tidal volume, respiratory rate and derived minute volume
